Where two headings read alike, the source gives them in different places.
Columns and labels:
[1] = test system: MRC-5 fibroblasts; test: MTT cytotoxicity assay on non-cancerous MRC-5 fibroblasts; format: cell-based; settings: for primary growth inhibitory screen, cell viability, MRC-5 / effect on non-cancerous fibroblasts: 2.5 µM; for primary growth inhibitory screen, cell viability, MRC-5 / IC50: MTT; for primary growth inhibitory screen, cell viability, MRC-5: mean±SD, untreated control about 100; for effect on non-cancerous fibroblasts: based on the heat map; for IC50: mean ± SD
Method: (§1) Cytotoxicity screens were performed to assess the in vitro anticancer activity of the synthesized A-ring-linked 2-pyrazoles of estradiol, the pyrazolocoumarin-estradiol hybrids, and their structurally simplified non-steroidal analogs on various cancerous cell lines such as MCF-7, PC-3, DU145, and HeLa and on non-cancerous MRC-5 fibroblasts. The 2-acetyl-phenol starting materials (4, 5, and 15) were also included for comparison. All compounds were applied in 2.5 µM concentration for 72 h. The obtained cell viability data were used to construct a heat map (Figure 2) in order to select compounds that exert cancer cell line-specific cytotoxicity. […] Furthermore, some compounds discriminated only DU145 cells and could eliminate these type of prostate cancer cells.
(§2) To understand structure-function relationships, we also included the structural analogs of the selected compounds, namely 7a (C-17 acetate of 8a), 8c (C-17 OH counterpart of 7c), and 9a (steroidal pair of 19a) into subsequent analyses. […] For this, compounds were applied on MCF-7, PC-3, DU145, and HeLa and on non-cancerous MRC-5 fibroblasts in various concentrations for 72 h or were treated with cisplatin at different concentrations. On the viability data, dose–response curves were fitted (Figure S1) and IC50 values were calculated accordingly (Table 3). In agreement with the primary cytotoxicity screen (Table S1), the obtained IC50 concentrations clearly indicated which compound was selectively effective on one or more cancer cell lines. […] Typically, acetylated steroidal pyrazoles were less favorable than deacetylated counterparts due to reduced cancer cell selectivity (7c, 10a).
(§3) To evaluate the in vitro pharmacological effects of the synthesized molecules, each compound was first dissolved in cell culture grade DMSO (Sigma) to a final concentration of 10 mM. Using MTT colorimetric assay, the cytotoxicity of these compounds was evaluated on cancerous (MCF-7, HeLa, DU145, PC-3) and non-cancerous (MRC-5) cell lines. Briefly, 5000 cells/well of each cell line were seeded in 96-well plates and were left to grow overnight in a 5% CO2 atmosphere at 37 °C. On the next day, cells were treated with each derivative separately, in case of the primary screen, or only with the selected compounds upon IC50 determination. Cells were incubated with the test compounds for 72 h in a 5% CO2 atmosphere at 37 °C. End point was measured by incubating cells for 1 h with 0.5 mg/mL of MTT reagent (Serva) dissolved in serum free culture medium. The formazan crystals formed by metabolically active cells were later dissolved in DMSO. Optical density of the obtained solutions was measured at 570 nm using a Synergy HTX plate reader. […] The analysis and conclusions were made based on three independent experiments. Normalized data were analyzed and the heat map was constructed using GraphPad Prism 7 software.

[2] = test system: DU145 cells; test: MTT cytotoxicity assay on DU145 prostate cancer cells; format: cell-based; settings: for primary growth inhibitory screen, cell viability, DU145: 2.5 µM, 72 h, mean±SD, untreated control about 100; for IC50: mean ± SD
Method: as §1, §2, §3

[3] = test system: HeLa cells; test: MTT cytotoxicity assay on HeLa cells; format: cell-based; settings: for primary growth inhibitory screen, cell viability, HeLa: 2.5 µM, mean±SD, untreated control about 100; for IC50: mean ± SD
Method: as §1, §2, §3

[4] = test system: MCF-7 cells; test: MTT cytotoxicity assay on MCF-7 cells; format: cell-based; settings: for primary growth inhibitory screen, cell viability, MCF-7: 2.5 µM, 72 h, mean±SD, untreated control about 100; for IC50: mean ± SD
Method: as §1, §2, §3

[5] = test system: PC-3 cells; test: MTT cytotoxicity assay on PC-3 prostate cancer cells; format: cell-based; settings: for primary growth inhibitory screen, cell viability, PC-3: 2.5 µM, 72 h, mean±SD, untreated control about 100; for IC50: mean ± SD
Method: as §1, §2, §3

[6] = Homo sapiens, MRC5, 72 h, compounds 1-7 µM, read-out: IC50 on MRC-5
[7] = Homo sapiens, DU-145, 72 h, compounds 1-7 µM, read-out: IC50 on DU145
[8] = Homo sapiens, HeLa, 72 h, compounds 1-7 µM, read-out: IC50 on HeLa
[9] = Homo sapiens, MCF7, 72 h, compounds 1-7 µM, read-out: IC50 on MCF-7
[10] = Homo sapiens, PC-3, 72 h, compounds 1-7 µM, read-out: IC50 on PC-3

Compound	primary growth inhibitory screen, cell viability, MRC-5 ([1]; 72 h)	effect on non-cancerous fibroblasts ([1]; 72 h)	IC50 [1, 6] [µM]	primary growth inhibitory screen, cell viability, DU145 [2]	IC50 [2, 7] [µM]	melting point	primary growth inhibitory screen, cell viability, HeLa ([3]; 72 h)	IC50 [3, 8] [µM]	primary growth inhibitory screen, cell viability, MCF-7 [4]	IC50 [4, 9] [µM]	primary growth inhibitory screen, cell viability, PC-3 [5]	IC50 [5, 10] [µM]	IC50 ([1]; cisplatin applied for 24 h, 20-330 µM, read-out: IC50 on MRC-5 (positive control)) [µM]	IC50 ([2]; cisplatin applied for 24 h, 20-330 µM, read-out: IC50 on DU145 (positive control)) [µM]	IC50 ([3]; cisplatin applied for 24 h, 20-330 µM, read-out: IC50 on HeLa (positive control)) [µM]	IC50 ([4]; cisplatin applied for 24 h, 20-330 µM, read-out: IC50 on MCF-7 (positive control)) [µM]	IC50 ([5]; cisplatin applied for 24 h, 20-330 µM, read-out: IC50 on PC-3 (positive control)) [µM]
O=Cc1cn(-c2ccc(Cl)cc2)nc1-c1cc2c(cc1O)CCCC2 [Compound 17c, 1′-(4″-Chlorophenyl)-3′-(3-hydroxy-5,6,7,8-tetrahydronaphthalen-2-yl)-1′H-pyrazole-4″-carbaldehyde]	≥ 100±4.0	no or very mild effect	5.72 ± 1.1	80.3±10.8	> 7	182 to 184 °C	≥ 100±4.0	6.23 ± 1	77.5±4.6	4.12 ± 1	61.9±2.8	4.39 ± 1					
CC(=O)O[C@H]1CC[C@H]2[C@@H]3CCc4cc(O)c(-c5nn(-c6ccc(C)cc6)cc5C=O)cc4[C@H]3CC[C@]12C [Compound 7b, 2-(4′-Formyl-1′-(4″-tolyl)-1′H-pyrazol-3′-yl)-estra-1,3,5(10)-triene-3,17β-diol-17-acetate]	100.4±5.1			98.7±15.6		229 to 231 °C	100.1±2.1		≥ 100±4.3		98.2±6.5						
OCc1cn(-c2ccccc2)nc1-c1cc2c(cc1O)CCCC2 [Compound 18a, 3-(4′-(Hydroxymethyl)-1′-phenyl-1′H-pyrazol-3′-yl)-5,6,7,8-tetrahydro-2-naphthol]	≥ 100±0.1			87.0±18.2		135 to 137 °C	≥ 100±6.5		98.0±7.1		91.5±12.9						
Cc1ccc(-n2cc3c(=O)oc4cc5c(cc4c3n2)CCCC5)cc1 [Compound 19b, 2-(4′-Tolyl)-7,8,9,10-tetrahydrobenzo[6,7]chromeno[4,3-c]pyrazol-4(2H)-one]	≥ 100±0			100.6±6.3		224 to 226 °C	≥ 100±2.4		≥ 100±4.8		84.1±5.2						
N.N.[Cl][Pt][Cl] [cisplatin, reference compound]													34.3 ± 1.02	116.1 ± 1.06	297.1 ± 1.02	> 330	> 330
CC(=O)O[C@H]1CC[C@H]2[C@@H]3CCc4cc5oc(=O)c6cn(-c7ccc(Cl)cc7)nc6c5cc4[C@H]3CC[C@]12C [Compound 9c]	89.5±8.7			≥ 100±0.9		283 to 285 °C	75.7±1.7		91.1±3.1		94.1±4.2						
CC(=O)c1cc2c(cc1O)CCCC2 [Compound 15, 3-Acetyl-5,6,7,8-tetrahydro-2-naphthol]	≥ 100±3.7	no or very mild effect	> 7	≥ 100±6.7	> 7	70 to 72 °C	53.8±8.3	3.6 ± 1.2	≥ 100±1.9	> 7	≥ 100±2.2	> 7					
CC(=O)O[C@H]1CC[C@H]2[C@@H]3CCc4cc(O)c(-c5nn(-c6ccccc6)cc5CO)cc4[C@H]3CC[C@]12C [Compound 10a]	93.6±1.7			≥ 100±15.8		257 to 259 °C	83.2±2.0		73.5±7.2		63.6±17.8						
Cc1ccc(-n2cc(CO)c(-c3cc4c(cc3O)CCCC4)n2)cc1 [Compound 18b, 3-(4′-(Hydroxymethyl)-1′-(4″-tolyl)-1′H-pyrazol-3-yl)-5,6,7,8-tetrahydro-2-naphthol]	≥ 100±2.6	no or very mild effect	> 7	45.3±2.5	2.7 ± 1.1	163 to 165 °C	≥ 100±8.7	> 7	≥ 100±5.3	> 7	99.6±7.7	> 7					
O=Cc1cn(-c2ccccc2)nc1-c1cc2c(cc1O)CCCC2 [Compound 17a, 3′-(3-Hydroxy-5,6,7,8-tetrahydronaphthalen-2-yl)-1′-phenyl-1′H-pyrazole-4′-carbaldehyde]	≥ 100±7.3	no or very mild effect	6.26 ± 1.1	≥ 100±6.4	5.62 ± 1	137 to 138 °C	53.7±3.3	2.2 ± 1.1	≥ 100±2.3	5.17 ± 1	71.0±20.9	4.3 ± 1					
CC(=O)O[C@H]1CC[C@H]2[C@@H]3CCc4cc(O)c(C(C)=O)cc4[C@H]3CC[C@]12C [Compound 4, 2-Acetyl-estra-1,3,5(10)-triene-3,17β-diol-17-acetate]	≥ 100±6.6			94.2±8.6		200 to 202 °C	90.0±4.3		92.7±2.2		88.5±6.5						
CC(=O)O[C@H]1CC[C@H]2[C@@H]3CCc4cc(O)c(-c5nn(-c6ccc(Cl)cc6)cc5CO)cc4[C@H]3CC[C@]12C [Compound 10c]	96.4±10.1			77.3±6.3		288 to 290 °C	72.4±4.2		63.2±2.2		81.6±6.8						
C[C@]12CC[C@@H]3c4cc(-c5nn(-c6ccc(Cl)cc6)cc5C=O)c(O)cc4CC[C@H]3[C@@H]1CC[C@@H]2O [Compound 8c]	≥ 100±3.3		5.53 ± 1	≥ 100±5.0	4.82 ± 1	> 190 °C (dec.)	83.1±6.2	3.39 ± 1	≥ 100±5.3	5.34 ± 1	94.8±4.0	5.08 ± 1					
